Literature values as cited in patent US20090208616A1, “INTERVENTION TECHNIQUES FOR REDUCING CARCASS CONTAMINATION” (priority 2000, published 2009).
Read-outs that look alike come from different tables or passages of the source.

Tested on: Giardia Cysts

For `NCl` [Chloramine], the “CT value for 0.5-log inactivation of Giardia cysts by chloramine” value (“CT value for 0.5-log inactivation” for short) (pH range 6 to 9, 5 ° C.) is listed as 365 mg/L-min, the “CT value for 1-log inactivation of Giardia cysts by chloramine” value (“CT value for 1-log inactivation” below) (pH range 6 to 9, 5 ° C.) is listed as 735 mg/L-min and the “CT value for 1.5-log inactivation of Giardia cysts by chloramine” value (“CT value for 1.5-log inactivation” for short) (pH range 6 to 9, 5 ° C.) is listed as 1100 mg/L-min. The “CT value for 2-log inactivation of Giardia cysts by chloramine” value (“CT value for 2-log inactivation” below) (pH range 6 to 9, 5 ° C.) was 1470 mg/L-min, the “CT value for 2.5-log inactivation of Giardia cysts by chloramine” value (“CT value for 2.5-log inactivation” for short) (pH range 6 to 9, 5 ° C.) was 1830 mg/L-min and the “CT value for 3-log inactivation of Giardia cysts by chloramine” value (“CT value for 3-log inactivation” below) (pH range 6 to 9, 5 ° C.) was 2200 mg/L-min. For the same compound, the “CT value for 0.5-log inactivation” value (pH range 6 to 9, 10 ° C.) was 310 mg/L-min, the “CT value for 1-log inactivation” value (pH range 6 to 9, 10 ° C.) was 615 mg/L-min and the “CT value for 1.5-log inactivation” value (pH range 6 to 9, 10 ° C.) was 930 mg/L-min. For the same compound, the “CT value for 2-log inactivation” value (pH range 6 to 9, 10 ° C.) was 1230 mg/L-min, the “CT value for 2.5-log inactivation” value (pH range 6 to 9, 10 ° C.) was 1540 mg/L-min and the “CT value for 3-log inactivation” value (pH range 6 to 9, 10 ° C.) was 1850 mg/L-min. The “CT value for 0.5-log inactivation” value (pH range 6 to 9, 15 ° C.) was 250 mg/L-min, the “CT value for 1-log inactivation” value (pH range 6 to 9, 15 ° C.) was 500 mg/L-min and the “CT value for 1.5-log inactivation” value (pH range 6 to 9, 15 ° C.) was 750 mg/L-min. The “CT value for 2-log inactivation” value (pH range 6 to 9, 15 ° C.) was 1000 mg/L-min, the “CT value for 2.5-log inactivation” value (pH range 6 to 9, 15 ° C.) was 1250 mg/L-min and the “CT value for 3-log inactivation” value (pH range 6 to 9, 15 ° C.) was 1500 mg/L-min. For the same compound, the “CT value for 0.5-log inactivation” value (pH range 6 to 9, 20 ° C.) was 185 mg/L-min, the “CT value for 1-log inactivation” value (pH range 6 to 9, 20 ° C.) was 370 mg/L-min and the “CT value for 1.5-log inactivation” value (pH range 6 to 9, 20 ° C.) was 550 mg/L-min. For the same compound, the “CT value for 2-log inactivation” value (pH range 6 to 9, 20 ° C.) was 735 mg/L-min, the “CT value for 2.5-log inactivation” value (pH range 6 to 9, 20 ° C.) was 915 mg/L-min and the “CT value for 3-log inactivation” value (pH range 6 to 9, 20 ° C.) was 1100 mg/L-min. For the same compound, the “CT value for 0.5-log inactivation” value (pH range 6 to 9, 25 ° C.) was 125 mg/L-min, the “CT value for 1-log inactivation” value (pH range 6 to 9, 25 ° C.) was 250 mg/L-min and the “CT value for 1.5-log inactivation” value (pH range 6 to 9, 25 ° C.) was 375 mg/L-min. For the same compound, the “CT value for 2-log inactivation” value (pH range 6 to 9, 25 ° C.) was 500 mg/L-min, the “CT value for 2.5-log inactivation” value (pH range 6 to 9, 25 ° C.) was 625 mg/L-min and the “CT value for 3-log inactivation” value (pH range 6 to 9, 25 ° C.) was 750 mg/L-min. For the same compound, the “CT value for 0.5-log inactivation” value (pH range 6 to 9, ≦1 ° C.) was 635 mg/L-min, the “CT value for 1-log inactivation” value (pH range 6 to 9, ≦1 ° C.) was 1270 mg/L-min and the “CT value for 1.5-log inactivation” value (pH range 6 to 9, ≦1 ° C.) was 1900 mg/L-min. The “CT value for 2-log inactivation” value (pH range 6 to 9, ≦1 ° C.) was 2535 mg/L-min, the “CT value for 2.5-log inactivation” value (pH range 6 to 9, ≦1 ° C.) was 3170 mg/L-min and the “CT value for 3-log inactivation” value (pH range 6 to 9, ≦1 ° C.) was 3800 mg/L-min.
